Target: PI3Kα (Homo sapiens, UniProt P42336)
Experiment: pAKT S473 ELISA in A549 cells (PI3Kα activation)
Format: cell-based
Design: endogenous in cells; host or cells: A549
Conditions: for EC50: A549 cells, 15 min treatment, pAKT S473 ELISA, normalised to Emax of 1 μM insulin, read-out: Av EC50; for Emax at 10 µM: A549, 0.25 h, read-out: <50% response at 10 μM
Protocol: EC50 values were determined by quantifying phosphorylation on S473 residues of Akt in A549 human adenocarcinoma cells by ELISA (enzyme linked immunoadsorbent assay, R&D Systems, DYC887BE). A549 cells were seeded into 96-well plates (50,000 cells/well) in DMEM supplemented with 10% foetal bovine serum and 1% penicillin-streptomyocin. Following 24 h in culture cells were starved for 24 h in serum-free DMEM before 15 minute treatment with a concentration response curve of compounds. Experimental compounds were diluted in DMSO into […] 1:3 concentration response curves in polypropylene V-bottom plates (SLS MIC9050). Concentration response curves were diluted to a 3× stock in serum-free DMEM. Standard 8-point concentration response curves were performed at 50, 16.7, 5.6, 1.9, 0.6, 0.2, 0.07, 0.02 μM and serum-free DMEM containing 0.5% DMSO was used as a negative control. […] A549 cells were seeded at 50,000 cells per well in 96-well plates in DMEM (10% FBS+1% P/S). The next day cells were washed once with PBS before addition of serum-free DMEM for 24 h. On the day of treatment cells, were incubated in fresh serum-free DMEM prior to treatment. Compounds solubilised to 10 mM in DMSO were diluted 1:3 in an 8-point concentration response curve in DMSO. Concentration response curves were diluted in serum-free DMEM by transfer into intermediate plates using a BRAVO liquid handler (Agilent). Intermediate plates were then used to treat cell plates using the BRAVO liquid handler. Compound concentration response curves had atop concentration of 50 μM and a final well concentration of 0.5% DMSO. Cell plates were treated for 15 min at 37° C., 5% CO2 before being washed with ice-cold PBS and lysed in lysis buffer 6 (R&D Systems #895561) and freezing at −80° C. Levels of pAKT-S473 were determined using the phospho-AKT (S473) pan-specific Duoset IC ELISA (R&D Systems #DYC887BE) in 96-well white high-binding plates (Corning #3922) according to manufacturer's instructions. Endpoint luminescence was measured using a Sense (Hidex) platereader. […] Data were transformed and EC50 data were determined by variable slope (4 parameters) non-linear regression using Prism 7 (Graphpad).

Chain of PI3Kα (P42336 whole entry): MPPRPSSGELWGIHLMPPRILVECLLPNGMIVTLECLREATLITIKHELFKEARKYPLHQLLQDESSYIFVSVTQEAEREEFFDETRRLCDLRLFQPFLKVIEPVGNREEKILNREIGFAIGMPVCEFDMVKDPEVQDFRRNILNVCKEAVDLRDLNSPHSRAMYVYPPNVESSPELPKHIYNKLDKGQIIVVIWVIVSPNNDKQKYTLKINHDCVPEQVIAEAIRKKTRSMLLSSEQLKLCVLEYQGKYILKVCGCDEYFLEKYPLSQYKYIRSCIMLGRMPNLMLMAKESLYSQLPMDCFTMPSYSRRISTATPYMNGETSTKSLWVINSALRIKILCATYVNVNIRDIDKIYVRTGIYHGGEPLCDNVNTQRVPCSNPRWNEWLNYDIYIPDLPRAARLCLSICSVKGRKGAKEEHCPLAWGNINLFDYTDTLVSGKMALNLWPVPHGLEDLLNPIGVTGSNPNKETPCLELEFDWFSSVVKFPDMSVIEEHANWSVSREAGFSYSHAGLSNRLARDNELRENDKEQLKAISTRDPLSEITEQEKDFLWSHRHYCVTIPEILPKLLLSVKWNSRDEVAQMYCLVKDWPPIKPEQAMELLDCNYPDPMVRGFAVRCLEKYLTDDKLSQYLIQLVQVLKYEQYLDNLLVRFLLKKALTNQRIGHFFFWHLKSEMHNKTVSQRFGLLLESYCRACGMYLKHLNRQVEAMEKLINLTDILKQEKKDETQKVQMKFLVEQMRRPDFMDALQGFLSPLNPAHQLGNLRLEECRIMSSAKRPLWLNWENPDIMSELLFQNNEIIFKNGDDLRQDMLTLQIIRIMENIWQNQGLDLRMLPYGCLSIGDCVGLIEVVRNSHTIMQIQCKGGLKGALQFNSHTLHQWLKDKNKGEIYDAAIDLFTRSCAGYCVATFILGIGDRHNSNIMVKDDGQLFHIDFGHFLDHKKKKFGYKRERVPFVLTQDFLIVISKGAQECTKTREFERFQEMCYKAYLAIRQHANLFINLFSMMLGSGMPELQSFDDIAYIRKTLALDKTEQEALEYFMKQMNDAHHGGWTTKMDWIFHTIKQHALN
Chain of PI3Kα (P27986 whole entry partner): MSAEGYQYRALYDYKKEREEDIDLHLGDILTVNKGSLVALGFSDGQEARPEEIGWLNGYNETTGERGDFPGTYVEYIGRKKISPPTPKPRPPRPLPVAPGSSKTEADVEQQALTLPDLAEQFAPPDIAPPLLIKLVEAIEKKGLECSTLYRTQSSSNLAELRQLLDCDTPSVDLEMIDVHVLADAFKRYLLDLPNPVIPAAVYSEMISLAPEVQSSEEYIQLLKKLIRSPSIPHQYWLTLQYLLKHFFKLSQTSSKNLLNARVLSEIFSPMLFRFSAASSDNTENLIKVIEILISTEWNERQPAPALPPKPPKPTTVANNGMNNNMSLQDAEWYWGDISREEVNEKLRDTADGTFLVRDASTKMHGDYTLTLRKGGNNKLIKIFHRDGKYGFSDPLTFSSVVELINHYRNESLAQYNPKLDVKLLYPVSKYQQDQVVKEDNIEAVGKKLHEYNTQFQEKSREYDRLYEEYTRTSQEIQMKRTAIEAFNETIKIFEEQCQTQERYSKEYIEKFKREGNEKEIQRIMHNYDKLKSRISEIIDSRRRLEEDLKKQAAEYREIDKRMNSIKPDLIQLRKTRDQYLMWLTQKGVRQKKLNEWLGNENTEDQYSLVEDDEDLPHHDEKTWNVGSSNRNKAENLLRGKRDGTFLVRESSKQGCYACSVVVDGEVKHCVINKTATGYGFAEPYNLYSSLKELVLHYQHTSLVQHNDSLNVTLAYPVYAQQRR

| Compound | EC50 [µM] | Emax at 10 µM [%] |
| --- | --- | --- |
| COc1cc(N2CCN(C)CC2)ccc1Nc1cc(Nc2cccc(NS(C)(=O)=O)c2)ccn1 [60 (2054)] | 2.51 |  |
| CNC(=O)c1ccc(Nc2ccnc(Nc3ccc(N4CCN(C)CC4)cc3OC)c2)cc1 [61 (2055)] | 2.61 |  |
| COc1cc(N2CCN(C)CC2)ccc1Nc1cc(Nc2cccc3nccnc23)ccn1 [62 (2056)] | 1.29 | < 50 |
| COc1cc(N2CCN(C)CC2)ccc1Nc1cc(Nc2cccc3[nH]ccc23)ccn1 [63 (2057)] | > 50 | < 50 |
| COc1cc(N2CCN(C)CC2)ccc1Nc1cc(Nc2cccnc2)ccn1 [64 (2061)] | 1.58 |  |
| COc1cc(N2CCN(C)CC2)ccc1Nc1cc(Nc2cccc(-n3ccnc3)c2)ccn1 [65 (2063)] | 1.53 |  |
| COc1cc(N2CCN(C)CC2)ccc1Nc1cc(Nc2cccc(-n3cnnc3)c2)ccn1 [66 (2064)] | 17.3 |  |
| COc1cc(N2CCN(C)CC2)ccc1Nc1cc(Nc2ncccc2C#N)ccn1 [67 (2066)] | > 50 | < 50 |
| CC(=O)N1CCc2cccc(Nc3ccnc(Nc4cccc5ncccc45)c3)c21 [68 (2067)] | 4 |  |
| C#Cc1cccc(Nc2cc(Nc3cccc4c3N(C(C)=O)CC4)ccn2)c1 [69 (2069)] | > 50 |  |
| CC(=O)N1CCc2cccc(Nc3ccnc(Nc4cc(C(C)C)nn4C)c3)c21 [70 (2070)] | 0.39 | < 50 |
| CC(=O)N1CCc2cccc(Nc3ccnc(Nc4cccc5ccncc45)c3)c21 [71 (2071)] | 6.54 | < 50 |
| CC(=O)N1CCc2cc(Nc3cc(Nc4cccc5c4N(C(C)=O)CC5)ccn3)ccc21 [72 (2072)] | 1.08 |  |
| CC(=O)N1CCc2ccc(Nc3cc(Nc4cccc5c4N(C(C)=O)CC5)ccn3)cc21 [73 (2073)] | 0.5 | < 50 |
| CC(=O)N1CCc2cccc(Nc3ccnc(Nc4ccc(-c5ccccc5)cn4)c3)c21 [74 (2079)] | > 50 |  |
| CC(=O)N1CCc2cccc(Nc3ccnc(Nc4ccc(C(=O)N(C)C)cc4)c3)c21 [75 (2101)] | > 19 | < 50 |
| CCN1CCN(c2ccc(Nc3cc(Nc4cc(C(C)(C)C)nn4C)ccn3)cc2)CC1 [76 (2102)] | 2.2 |  |
| CCN1CCN(c2ccc(Nc3cc(Nc4cc(C(C)C)nn4C)ccn3)cc2)CC1 [77 (2103)] | 2.09 |  |
| CCN1CCN(c2ccc(Nc3cc(Nc4cccc(C(=O)NC)c4)ccn3)cc2)CC1 [78 (2104)] | 1.98 |  |
| CCN1CCN(c2ccc(Nc3cc(Nc4ccc(C(=O)NC)cc4)ccn3)cc2)CC1 [79 (2105)] | 8.31 |  |
| CCN1CCN(c2ccc(Nc3cc(Nc4ccncn4)ccn3)cc2)CC1 [80 (2106)] | ≥ 50 |  |
| CCN1CCN(c2ccc(Nc3cc(Nc4cccc(-n5ccnc5)c4)ccn3)cc2)CC1 [81 (2107)] | 5.33 |  |
| CCN1CCN(c2ccc(Nc3cc(Nc4cccc(S(C)(=O)=O)c4)ccn3)cc2)CC1 [82 (2108)] | 1.52 |  |
| CC(=O)N1CCc2cc(Nc3cc(Nc4cc(C(C)(C)C)nn4C)ccn3)ccc21 [83 (2109)] | 2.78 | < 50 |
| CC(=O)N1CCc2cc(Nc3cc(Nc4cc(C(C)C)nn4C)ccn3)ccc21 [85 (2110)] | > 27.2 | < 50 |

| Compound | EC50 [µM] | Emax at 10 µM [%] |
| --- | --- | --- |
| CNC(=O)c1cccc(Nc2ccnc(Nc3ccc4c(c3)CCN4C(C)=O)c2)c1 [86 (2111)] | > 29 | < 50 |
| CNC(=O)c1ccc(Nc2ccnc(Nc3ccc4c(c3)CCN4C(C)=O)c2)cc1 [87 (2112)] | > 27 | < 50 |
| CC(=O)N1CCc2cc(Nc3cc(Nc4cccc(S(C)(=O)=O)c4)ccn3)ccc21 [88 (2115)] | > 50 | < 50 |
| CNC(=O)c1ccc(Nc2cc(Nc3cc(C(C)(C)C)nn3C)ccn2)cc1 [89 (2116)] | > 50 | < 50 |
| CNC(=O)c1ccc(Nc2cc(Nc3cc(C(C)C)nn3C)ccn2)cc1 [90 (2117)] | > 50 | < 50 |
| COc1cc(C(=O)N2CCOCC2)ccc1Nc1cc(Nc2cccc3c2N(C(C)=O)CC3)ccn1 [91 (2347)] | 2.29 |  |
| CC(=O)N1CCc2cccc(Nc3ccnc(Nc4ccc(C(=O)N5CCOCC5)cc4)c3)c21 [92 (2348)] | > 10.4 |  |
| CNC(=O)c1ccc(Nc2cc(Nc3cccc4c3N(C(C)=O)CC4)ccn2)c(OC)c1 [93 (2349)] | 5.18 |  |
| CC(=O)N1CCc2cccc(Nc3ccnc(Nc4ccc(N5CCOCC5)cc4C)c3)c21 [94 (2350)] | 4.56 |  |
| CC(=O)N1CCc2cccc(Nc3ccnc(Nc4ccc(N5CCN(C)CC5)cc4C)c3)c21 [95 (2351)] | 14.7 |  |
| COc1cc(N2CC3(COC3)C2)ccc1Nc1cc(Nc2cccc3c2N(C(C)=O)CC3)ccn1 [96 (2353)] | > 0.505 | < 50 |
| COc1cc(N2CCN(C3CC3)CC2)ccc1Nc1cc(Nc2cccc3c2N(C(C)=O)CC3)ccn1 [97 (2354)] | 0.97 |  |
| CC(=O)N1CCc2cccc(Nc3ccnc(Nc4ccnc5ccccc45)c3)c21 [98 (2355)] | > 50 |  |
| CCN1CCN(c2ccc(Nc3cccc(Nc4cccc5c4N(C(C)=O)CC5)c3)cc2)CC1 [99 (2346)] | > 50 | < 50 |
| COc1ccccc1Nc1cc(Nc2cccc3c2N(C(C)=O)CC3)ccn1 [99 (2356)] | 4.78 | < 50 |
| COc1cc(C#N)ccc1Nc1cc(Nc2cccc3c2N(C(C)=O)CC3)ccn1 [100 (2357)] | > 50 |  |
| CC(=O)N1CCc2cccc(Nc3ccnc(Nc4cccc(NS(C)(=O)=O)c4)c3)c21 [101 (2358)] | > 50 |  |
| CC(=O)N1CCc2cccc(Nc3ccnc(Nc4cccc(S(C)(=O)=O)c4)c3)c21 [102 (2359)] | > 50 |  |
| COc1cc(N2CCN(C)CC2)ccc1Nc1cc(-c2cccc(C(=O)N(C)C)c2)ccn1 [103 (1940)] | > 50 | < 50 |
| COc1ccc(S(C)(=O)=O)cc1Nc1cc(Nc2cccc3c2N(C(C)=O)CC3)ccn1 [R1 (1888)] | 1.55 |  |
| COc1cc(N2CCN(C)CC2)ccc1Nc1cc(Nc2cccc3c2N(C(C)=O)CC3)c(F)cn1 [R2 (1890)] | 1.62 |  |
| COc1cc(Nc2cc(Nc3cccc4c3N(C(C)=O)CC4)ccn2)cc(OC)c1OC [R3 (1887)] | 1.96 |  |
| COc1cc(N2CCN(C)CC2)ccc1Nc1cc(Nc2cccc3c2N(C(C)=O)CC3)ccn1 [R4 (1889)] | 2.55 |  |
| CC(=O)N1CCc2cccc(Nc3ccnc(-c4cnn(C5CCNCC5)c4)c3)c21 [R5 (1962)] | 0.59 | < 50 |

Source: patent US20250263404A1, “AMINOPYRIDINES AS ACTIVATORS OF PI3 KINASE” (UCL Business Ltd, priority 2021, published 2025)
